Laboratory results published in patent US8222432B2 (BioLink Life Sciences, Inc., priority 2008, dated 2012).
Like-named read-outs stand apart in the source and are kept apart here.

Tests used:
glucose assimilation = conditions: comparable to the effect of 200 nM insulin; cited from earlier work
[1] = test system: glucose transporters (GLUT 1 and GLUT 4); conditions: cited from earlier work
pyruvate dehydrogenase = conditions: cited from earlier work
[2] = closed and sealed amber container, cited from earlier work
diabetic neuropathy = conditions: >600 mg/day; cited from earlier work
nerve function = conditions: 600 or 1200 mg daily, 24 months; cited from earlier work
[3] = test system: neuropathy impairment score; conditions: 600 mg daily for 6 months, 509 patients; cited from earlier work
[4] = test system: cardiac autonomic neuropathy; conditions: 800 mg daily, 4 months, diabetic patients with cardiac autonomic neuropathy; cited from earlier work
diabetic polyneuropathy = conditions: 3-week period; cited from earlier work
[5] = test system: neuropathic symptoms and deficits; conditions: 600 mg/day over a 3-week period; cited from earlier work
[6] = Storage stability of magnesium R-(+)-α-lipoate at room temperature / ambient humidity
Excerpt: Test samples of magnesium R-(+)-α-lipoate were stored at ambient temperatures for two years.

[7] = ambient temperatures, two years

Compound: S-(−)-α-lipoic acid [S-(−)-α-lipoate]
- stimulation of glucose assimilation (factor) (glucose assimilation): little or no change
- total content of glucose transporters [1]: appeared to lower
- translocation of GLUT 1 and GLUT 4 from the cytosol to the plasma membrane [1]: had no effect or has an inhibiting effect
- activity of pyruvate dehydrogenase (pyruvate dehydrogenase): inhibited

Compound: O=C(O)CCCCC1CCSS1 (stereo not drawn) [α-lipoic acid, 1,2-dithiocyclopentane-3-valeric acid]
- storage stability ([2]; room temperature): a year or longer
- patient symptoms (diabetic neuropathy): significantly improved patient symptoms
- nerve function (nerve function): improved nerve function
- neuropathy impairment score [3]: improved neuropathy impairment score as early as 19 days
- heart rate variability [4]: significantly improved
- sensory symptoms (Total Symptom Score) (diabetic polyneuropathy): improved sensory symptoms
- positive neuropathic symptoms and neuropathic deficits; safety [5]: safe and effective

Compound: O=C(O)CCCC[C@@H]1CCSS1 [magnesium R-(+)-α-lipoate, magnesium R-(+)-alpha-lipoate]
- hygroscopicity ([6]; ambient environments, relative humidities as high as 75%): not hygroscopic
- chemical composition, purity and chiral purity on storage [6, 7]: did not change during storage under these conditions
- physical state / appearance and properties on storage [6, 7]: did not change over time
- visible signs of polymerization or degradation [6, 7]: no visible signs of polymerization or degradation
- physical appearance and properties on storage ([6]; room temperature, relative humidities as high as 75%, one week): did not change during storage

Compound: O=C(O)CCCCC1CCSS1 (stereo not drawn) [R-(+)-α-lipoic acid]
- stimulation of glucose assimilation (factor) (glucose assimilation): greater than 2
- translocation of GLUT 1 and GLUT 4 from the cytosol to the plasma membrane [1]: stimulated
- activity of pyruvate dehydrogenase (pyruvate dehydrogenase): increased
- storage stability ([2]; refrigerated temperatures): must be used within a few months
- visible signs of polymerization or degradation [6, 7]: clumping of the compound, development of a strong sulfur odor, and formation of small and visible gummy balls of dark yellow material
